Measurements: ChEMBL document CHEMBL1131279, “Endothiopeptide inhibitors of HIV-1 protease” (Bioorg Med Chem Lett, 1998)
Starred links: 1 amine or outer side, 2 acyl side, 3 side chain; linkers in the order of their positions; H or OH if unused. Non-standard residues stand in square brackets, D forms with d. Residues, ends and D or L forms follow the SMILES beside them. *: point of attachment. X2 = O=C([C@H](Cc1ccccc1)NC(=S)[C@H](Cc1ccccc1)N[*:1])[*:2]; X3 = O=C([C@H](Cc1ccccc1)CC(O)[C@H](Cc1ccccc1)N[*:1])[*:2]; X4 = CC(C)[C@H](/N=C(\S)[C@H](Cc1ccccc1)N[*:1])C(=O)[*:2]; AlaΨ(CSNH)Ala = C[C@H](NC(=S)[C@H](C)N[*:1])C(=O)[*:2]; X5 = C[C@H](N[*:1])C(=S)N[C@@H](Cc1ccccc1)C(=O)[*:2]; X1 = COC(=O)[C@@H](NC(=S)[C@@H](N*)C(C)C)C(C)C; Cbz = O=C(OCc1ccccc1)*; Boc = CC(C)(C)OC(=O)*

Columns and labels:
[1] = target: T1, Human immunodeficiency virus type 1 protease (Human immunodeficiency virus 1, UniProt Q72874); assay: Inhibitory activity against HIV-1 Protease was determined
[2] = target: T1, Human immunodeficiency virus type 1 protease; assay: Binding affinity was evaluated for competitive inhibition of HIV-1 Protease

## COC(=O)[C@@H](NC(=O)[C@@H](NC(=O)[C@H](Cc1ccccc1)NC(=O)[C@H](Cc1ccccc1)NC(=O)[C@H](C)/N=C(\S)[C@H](C)NC(=O)OC(C)(C)C)C(C)C)C(C)C (Boc-[AlaΨ(CSNH)Ala]FFVV-OMe)
[1]
  IC50: 160 µM

## COC(=O)[C@@H](NC(=O)[C@@H](/N=C(\S)[C@H](Cc1ccccc1)NC(=O)[C@H](Cc1ccccc1)NC(=O)[C@H](C)NC(=O)[C@H](C)NC(=O)OC(C)(C)C)C(C)C)C(C)C (Boc-AAF[X4]V-OMe)
[1]
  IC50: > 200 µM

## COC(=O)[C@@H](NC(=O)[C@@H](NC(=O)[C@H](Cc1ccccc1)CC(O)[C@H](Cc1ccccc1)NC(=O)[C@H](C)NC(=O)[C@H](C)NC(=O)OCc1ccccc1)C(C)C)C(C)C (some centres not stated) (Cbz-AA[X3]VV-OMe)
[1]
  Ki: 0.0004 µM

## COC(=O)[C@@H](NC(=O)[C@@H](NC(=O)[C@H](Cc1ccccc1)NC(=O)[C@H](Cc1ccccc1)NC(=S)[C@H](C)NC(=O)[C@H](C)NC(=O)OC(C)(C)C)C(C)C)C(C)C (Boc-A[X5]FVV-OMe)
[1]
  IC50: 51 µM

## COC(=O)[C@@H](NC(=S)[C@@H](NC(=O)[C@H](Cc1ccccc1)NC(=O)[C@H](Cc1ccccc1)NC(=O)[C@H](C)NC(=O)[C@H](C)NC(=O)OC(C)(C)C)C(C)C)C(C)C (Boc-AAFF-X1)
[2]
  Ki: 3.4 µM
[1]
  IC50: 4.5 µM

## COC(=O)[C@@H](NC(=O)[C@@H](NC(=O)[C@H](Cc1ccccc1)NC(=S)[C@H](Cc1ccccc1)NC(=O)[C@H](C)NC(=O)[C@H](C)NC(=O)OC(C)(C)C)C(C)C)C(C)C (Boc-AA[X2]VV-OMe)
[1]
  IC50: 18 µM
